# Experiments:
# [1] = PK of prodrugs of Compound 1 in rats; format: in vivo; details: oral gavage 3 mg/kg, plasma, FIG. 9
# Protocol: The prodrugs whose PK parameters are to be determined can be formulated as a solution in 0.5% MC/0.5% Tween 80/99% water and administered orally by gavage to rats at a dose of 3 mg/kg. Rats are weighed the day before the study. Rat plasma is sampled predose and at 15, 30 min, 1, 2, 3, 4, 6, 8, 12 and 24 hrs post dose using Instech automatic blood sampling equipment. Blood is collected in tubes containing K2-EDTA and 110 uL plasma are extracted for analysis. Rats are fed ad lib and standard IACUC and SOP protocols are followed. Plasma samples and dose samples are analyzed using LC/MS/MS for both the prodrug compound and the active metabolite. PK parameters for both analytes for each subject are calculated using the measured dose of prodrug.
# [2] = test system: hepatitis C virus (HCV) replicon; experiment: HCV replicon cell assay; format: cell-based; details: HCV RNA level, 48-hour incubation
# Protocol: Cells containing hepatitis C virus (HCV) replicon were maintained in DMEM containing 10% fetal bovine serum (FBS), 0.25 mg per ml of G418, with appropriate supplements (media A).
# On day 1, replicon cell monolayer was treated with a trypsin:EDTA mixture, removed, and then media A was diluted into a final concentration of 100,000 cells per ml with 10,000 cells in 100 μl were plated into each well of a 96-well tissue culture plate, and cultured overnight in a tissue culture incubator at 37° C.
# On day 2, compounds (in 100% DMSO) were serially diluted into DMEM containing 2% FBS, 0.5% DMSO, with appropriate supplements (media B). The final concentration of DMSO was maintained at 0.5% throughout the dilution series.
# Media on the replicon cell monolayer was removed, and then media B containing various concentrations of compounds was added. […]
# A Taqman real-time RT-PCR quantification assay was set up with two sets of specific primers and probe. […] Total RNA extractants from treated HCV replicon cells was added to the PCR reactions for quantification of both HCV and BVDV RNA in the same PCR well. […] The level of HCV RNA in each well was calculated according to a standard curve run in the same PCR plate. The percentage of inhibition or decrease of HCV RNA level due to compound treatment was calculated using the DMSO or no compound control as 0% of inhibition. […]
# [3] = male, human, in vivo
# Protocol: 25 healthy male volunteers were enrolled.
# A dose escalation scheme was used that combined dose doubling and modified Fibonacci to be aggressive in the lower dose range and conservative in the higher dose range.
# A pharmacokinetics analysis was performed using the statistical moment approach.
# [4] = test system: HCV; details: monotherapy, patients; cited from earlier work
compound,measurement,setting,value
C[C@@H](N)C(=O)O[C@H]1CC[C@H](N(c2cc(C#CC(C)(C)C)sc2C(=O)O)C(=O)[C@H]2CC[C@H](C)CC2)CC1 [Compound H],in vivo conversion of prodrug,[1],converted into the —OH active metabolite
CCC[C@H](NC(=O)[C@@H]1[C@H]2CCC[C@H]2CN1C(=O)[C@@H](NC(=O)[C@@H](NC(=O)c1cnccn1)C1CCCCC1)C(C)(C)C)C(=O)C(=O)NC1CC1 [VX-950],IC50,[2],0.24 µg/mL
same,IC90,[2],0.476 µg/mL
same,eliminated unchanged in the urine,[3],Less than 2%
interferon alfa,"long term remission, fraction of cases",[4],~25%
